These results are taken from ChEMBL document CHEMBL3120134, “A review of non-nucleoside anti-hepatitis B virus agents” (Eur J Med Chem, 2014).

Data set [1] relates to Hepatitis B virus. As to the kind of experiment: Antiviral activity against Hepatitis B virus. The format is functional, organism-based.
In data set [2] the test system is Hepatitis B virus. As to the kind of experiment: Antiviral activity against Hepatitis B virus assessed as inhibition of Hepatitis B virus DNA replication. Type of data set: functional, organism-based.
Data set [3] relates to Duck hepatitis B virus. As to the kind of experiment: Antiviral activity against Duck Hepatitis B virus infected in duckling assessed as decrease in DHBV level in serum at 120 mg/kg dosed through liquid diet for 10 days administered started on day 7 post-infection. The format is functional.
Data set [4] concerns Hepatitis B virus. As to the kind of experiment: Antiviral activity against Hepatitis B virus infected in human HepG2.2.15 cells assessed as decrease in HBV surface antigen secretion at 200 ug/ml after 9 days by ELISA. The format is functional. The following applies: HepG2 2.2.15, 216 h.
Data set [5] deals with Hepatitis B virus. As to the kind of experiment: Antiviral activity against Hepatitis B virus infected in human HepG2.2.15 cells assessed as decrease in HBV e antigen secretion at 200 ug/ml after 9 days by ELISA. The format is functional. As to conditions: HepG2 2.2.15, 216 h.
In data set [6] the test system is Hepatitis B virus. As to the kind of experiment: Antiviral activity against Hepatitis B virus infected in human HepG2.2.15 cells assessed as decrease in HBV surface antigen secretion. The format is functional, organism-based, HepG2 2.2.15.
Data set [7] has as its system Hepatitis B virus. As to the kind of experiment: Antiviral activity against Hepatitis B virus infected in human HepG2.2.15 cells assessed as decrease in HBV e antigen secretion. The format is functional, organism-based, HepG2 2.2.15.
Data set [8] has as its system Hepatitis B virus. As to the kind of experiment: Antiviral activity against Hepatitis B virus assessed as inhibition of virion production. Type of data set: functional, organism-based.
For data set [9], the system named is Hepatitis B virus. As to the kind of experiment: Antiviral activity against Hepatitis B virus infected in human Huh7 cells assessed as inhibition of HBV particles production. Type of data set: functional, organism-based. The following applies: Huh-7.
The subject of data set [10] is Hepatitis B virus. As to the kind of experiment: Antiviral activity against Hepatitis B virus infected in human HepG2.2.15 cells assessed as decrease in HBV DNA production. Type of data set: functional, organism-based. As to conditions: HepG2 2.2.15.
A short description of data set [11]: Selectivity index, ratio of cytotoxicity towards human HepG2.2.15 cells to IC50 for HBV DNA production. The format is toxicity, cell-based. The following applies: read-out: Selectivity Index.

In the case of `O=C(Nc1ncc(Cl)s1)c1ccccc1O`, the EC50 in data set [1] is 120 nM.

With `Cc1ccc(O)c(C(=O)Nc2ncc(Cl)s2)c1`, the EC50 in data set [1] is 120 nM.

For the molecule `Cc1ccc(C(=O)Nc2ncc(Cl)s2)c(O)c1`, the EC50 in data set [1] was determined as 120 nM.

`O=C(Nc1ncc(Br)s1)c1ccccc1O` came in with an EC50 in data set [1] of 120 nM.

`NC(=O)c1cc2ccc3c(c2c(-c2ccc4c(c2)OCO4)c1C(=O)O)OCO3`: the EC50 in data set [1] stood at 800 nM.

`CCOC(=O)c1c(C[S+]([O-])c2cccc(F)c2)n(C)c2cc(Br)c(O)c(CN3CCOCC3)c12` (stereo not drawn) yielded an IC50 in [1] below 60 µg/mL.

Take `COC(=O)C1=C(C)NC(c2nccs2)=N[C@H]1c1ccc(F)cc1Cl`: the IC50 in [2] was 30 nM.

For `COC(=O)C1=C(C)NC(c2ncccc2F)=N[C@@H]1c1ccc(F)cc1Cl`, in [2], the IC50 was determined as 150 nM.

With `CC(C)(O)[C@@H]1CC[C@](C)([C@H]2[C@@H](O)C[C@@]3(C)[C@@H]4C[C@H](O[C@@H]5O[C@H](CO)[C@@H](O)[C@H](O)[C@H]5O)[C@H]5C(C)(C)[C@@H](O[C@@H]6OC[C@@H](O)[C@H](O)[C@H]6O)CC[C@@]56C[C@@]46CC[C@]23C)O1`, the inhibition in vivo at 120 mg/kg in [3] is 64%. The inhibition at 200 µg/mL in data set [4] turned out to be 31.8%; in data set [5] it was 23.3%.

On to `COc1cc2c(cc1OC)-c1c(C)c3ccc4c(c3c[n+]1CC2)OCO4.[OH-]`, for which the “inhibition (INH)” value amounted to 50% in [6] and 40% in data set [7].

In the case of `COc1cc2c(cc1O)-c1c(C)c3ccc4c(c3c[n+]1CC2)OCO4.[OH-]`, the “inhibition (INH)” value in [6] came out at 50%; in [7], 40%.

`COc1cc2c(cc1O)CC[n+]1cc3c4c(ccc3c(C)c1-2)OCO4.[OH-]`: the “inhibition (INH)” value turned out to be 50% in [6] and 40% in [7].

Consider `COC(=O)c1nc(-c2csc([C@@H](NC(=O)c3cccs3)C(C)C)n2)oc1C`, for which the IC50 in [2] is 76400 nM.

Turning to `CC(C)Cc1sc(-c2nccs2)nc1C(=O)O`, the IC50 in [2] amounted to 60000 nM.

As to `COC(=O)c1nc(-c2nccs2)sc1CC(C)C`, the IC50 in data set [2] was found to be 2400 nM.

Regarding `CCOC(=O)c1nc(-c2nccs2)sc1CC(C)C`, the IC50 in [2] came out at 1100 nM.

Take `CCOC(=O)c1nc(-c2ncc(C)s2)sc1CC(C)C`: in data set [2], the IC50 turned out to be 140 nM.

For `Cc1ccc(-c2nnc3sc(CN)cn23)cc1`, half-maximal inhibition in data set [1] (IC50) was put at 35000 nM.

`CC(=O)OC[C@H]1O[C@@H](Sc2nnc(-c3ccc(Cl)cc3)n2N)[C@H](OC(C)=O)[C@@H](OC(C)=O)[C@@H]1OC(C)=O`: the IC50 in [1] was 63000 nM.

`Nn1c(SC(c2ccccc2)c2ccccc2)nnc1-c1ccc(Cl)cc1` gave an IC50 in data set [1] of 40000 nM.

As to `CCC(c1nnc(SCCN2CCN(c3ccccc3OC)CC2)o1)S(=O)(=O)c1ccccc1` (stereo not drawn), in data set [8], the EC50 was found to be 1630 nM.

Consider `Cc1cc(C)n2nc(S)nc2c1`, for which the IC50 in [9] worked out at 120 nM.

The molecule `CCOC(=O)c1c(C[S+]([O-])c2ccc(F)c(F)c2)n(C)c2cc(Br)c(O)c(Cn3ccnc3C)c12` (stereo not drawn) displayed an IC50 in data set [1] below 60 µg/mL.

In data set [1], `CCOC(=O)c1c(C[S+]([O-])c2ccc(F)cc2)n(C)c2cc(Br)c(O)c(CN3CCOCC3)c12` (stereo not drawn) had an IC50 below 60 µg/mL.

`CCOC(=O)c1c(CS(=O)(=O)c2cccc(OC)c2)n(C)c2ccc(O)c(CN3CCCC3)c12` registered an IC50 in data set [1] below 60 µg/mL.

`CCOC(=O)c1c(CS(=O)(=O)c2ccc(C)cc2)n(C2CC2)c2ccc(O)c(Cn3ccnc3)c12` showed a half-inhibitory concentration (IC50) in data set [1] below 60 µg/mL.

For `CCOC(=O)c1cc2cc(OC)c(O)c(Cn3ccnc3)c2nc1C[S+]([O-])c1ccc(F)cc1` (stereo not drawn), the IC50 in [10] is 3500 nM. The selectivity ratio in data set [11] is 37.9.
